In US11072634B2, “Inhibitors of transglutaminases” (Zedira GmbH, priority 2016, dated 2021):

What was measured:
[1] = target: T1, recombinant human tissue transglutaminase (rhTG2) (Homo sapiens, UniProt P21980); assay: Inhibition of rec. human tissue transglutaminase (fluorescence, Abz-APE(CAD-DNP)QEA-OH); assay type: biochemical
T1 construct: purchased Zedira 1022 (so in the source); T022)
T1 sequence (P21980 1-687): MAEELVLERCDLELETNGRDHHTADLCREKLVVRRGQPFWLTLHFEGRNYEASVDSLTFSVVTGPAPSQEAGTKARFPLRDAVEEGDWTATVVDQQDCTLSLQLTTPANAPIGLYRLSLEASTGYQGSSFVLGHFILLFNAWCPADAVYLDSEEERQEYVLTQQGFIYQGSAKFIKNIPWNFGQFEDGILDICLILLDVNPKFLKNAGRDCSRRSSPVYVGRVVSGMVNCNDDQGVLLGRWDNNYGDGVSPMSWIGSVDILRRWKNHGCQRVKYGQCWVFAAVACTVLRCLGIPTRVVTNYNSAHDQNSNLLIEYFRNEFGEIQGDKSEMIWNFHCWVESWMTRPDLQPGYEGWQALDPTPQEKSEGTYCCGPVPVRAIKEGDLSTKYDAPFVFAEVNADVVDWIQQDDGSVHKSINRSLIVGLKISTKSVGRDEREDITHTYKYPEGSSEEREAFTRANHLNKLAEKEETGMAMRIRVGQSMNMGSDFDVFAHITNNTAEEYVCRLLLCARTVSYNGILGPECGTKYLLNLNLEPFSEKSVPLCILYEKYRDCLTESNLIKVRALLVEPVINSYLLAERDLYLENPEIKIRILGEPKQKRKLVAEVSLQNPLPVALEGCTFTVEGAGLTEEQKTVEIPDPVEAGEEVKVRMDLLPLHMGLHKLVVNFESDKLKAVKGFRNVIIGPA
Method in brief: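 His6-rhTG2 in a master mix (50 mM Tris-HCl pH 7.4, 7.5 mM CaCl2, 150 mM NaCl, 5 mM DTT, 13.4 mM glycine methylester, 50 μM Abz-APE(CAD-DNP)QEA-OH) was added to serially diluted inhibitor. Fluorescence (ex 313/em 418 nm) was followed at 37 °C for 20 min. IC50 came from the 10–20 min slope relative to the 2% DMSO control.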

[2] = tested on: CaCo2 (human colon carcinoma cell line); assay: Metabolic activity, EZ4U-Assay; assay type: cell-based; settings: highest concentration 1 mM
Description: (§1) The following cell lines are used for determination of cytotoxicity: • CaCo2 (human colon carcinoma cell line) • Huh7 (human liver carcinoma cell line).
(§2) Cells are cultivated in DMEM/10% FCS at 37° C. and 5% CO2 in a 96 well plate with an initial seeding density of 2×10^4 cells/well.
(§3) Transglutaminase inhibitors are added to the cells with final concentrations from 0.1 μM to 1 mM one hour after seeding. The different inhibitor dilutions are prepared in DMSO, resulting in a final concentration of 1% (v/v) DMSO in every well (2 μl inhibitor in 200 μl cell culture medium). Cycloheximide (2.5 μg/ml) and Camptothecin (0.2 μg/ml) are used as control compounds. All measurements are performed in triplicates.
(§4) Determination of metabolic activity using EZ4U-Assay (Biomedica, Cat. No. BI-5000).
(§5) After 48 h of incubation with inhibitors or controls, the tetrazolium substrate is added to the cells. Substrate turnover by the cells is measured over two hours at 450 nm (using 630 nm was reference wavelength).

[3] = tested on: Huh7 (human liver carcinoma cell line); assay: Metabolic activity, EZ4U-Assay; assay type: cell-based; settings: highest concentration 1 mM
Description: as §1, §2, §3, §4, §5

IC50 ([1]; Table 1, TG2 inhibitors) | IC50 ([1]; Table 2, TG2 inhibitors) | SMILES | Cytotoxicity concentration (>10% deviation from negative control), EZ4U, Caoo2 [2] | Cytotoxicity concentration (>10% deviation from negative control), EZ4U, Huh-7 [3]
70 nM |  | COC(=O)[C@H](CC(C)C)NC(=O)[C@@H]1CCCN1C(=O)[C@@H](NC(=O)[C@H](CCC(=O)C(N)=O)NC(=O)OCc1ccccc1)C(C)C [Compound E02, (S)-methyl 2-((S)-1-((S)-2-((S)-6-amino-2-(benzyloxycarbonylamino)-5,6-dioxo-hexanamido)-3-methylbutanoyl)pyrrolidine-2-carboxamido)-4-methylpentanoate] | >1 mM | >1 mM
100 nM |  | CC(=O)N[C@@H](CCC(=O)C(N)=O)C(=O)N1CCN(c2ccccc2Cl)CC1 [Compound E06, (S)-5-acetamido-6-(4-(2-chlorophenyl)piperazin-1-yl)-2,6-dioxohexanamide] | >1 mM | >1 mM
100 nM |  | CC(=O)N1CCC[C@H]1C(=O)N[C@@H](CCC(=O)C(N)=O)C(=O)N1CCN(c2ncccc2C)CC1 [Compound E07, (S)-1-acetyl-N—((S)-6-amino-1-(4-(3-methylpyridin-2-yl)piperazin-1-yl)-1,5,6-trioxohexan-2-yl)pyrrolidine-2-carboxamide] | >1 mM | >1 mM
 | 85 nM | CCCCCNC(=O)C(=O)CC[C@H](NC(=O)[C@@H]1CCCN1C(C)=O)C(=O)Nc1cccn(CC(=O)NCC(CC)CC)c1=O [Compound E22, (S)-2-((S)-1-acetylpyrrolidine-2-carboxamido)-N1-(1-(2-(2-ethylbutylamino)-2-oxoethyl)-2-oxo-1,2-dihydropyridin-3-yl)-5-oxo-N6-pentylhexanediamide] |  | 
